Measured values published in ChEMBL document CHEMBL1201862, “PubChem BioAssay data set” (2004).
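A five-concentration, 48-hour dose response in 96-well plates underlies each endpoint, interpolated linearly between surrounding concentrations. The concentration for 50% growth inhibition is given as GI50.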 The source made the active and inactive calls. No stated cut-off is given here; in the data, active = GI50 up to about 1.1 µM and inactive = higher.

How the values were obtained:
Assay in all cases: NCI-60 cell line screen, 48 h
Hs-578T = system: Hs-578T
M14 = system: M14
HOP-62 = system: HOP-62
CCRF-CEM = system: CCRF-CEM
SNB-75 = system: SNB-75
NCI-H226 = system: NCI-H226
HOP-92 = system: HOP-92
U-251 = system: U-251
M19-MEL = system: M19-MEL
OVCAR-5 = system: OVCAR-5
PC-3 = system: PC-3
UO-31 = system: UO-31
KM12 = system: KM12
RXF 393 = system: RXF 393
T47D = system: T47D
HT-29 = system: HT-29
Malme-3M = system: Malme-3M
NCI-H460 = system: NCI-H460
NCI-H522 = system: NCI-H522
EKVX = system: EKVX

SMILES	GI50 (Hs-578T)	GI50 (M14)	GI50 (HOP-62)	GI50 (CCRF-CEM)	GI50 (SNB-75)	GI50 (NCI-H226)	GI50 (HOP-92)	GI50 (U-251)	GI50 (M19-MEL)	GI50 (OVCAR-5)	GI50 (PC-3)	GI50 (UO-31)	GI50 (KM12)	GI50 (RXF 393)	GI50 (T47D)	GI50 (HT-29)	GI50 (Malme-3M)	GI50 (NCI-H460)	GI50 (NCI-H522)	GI50 (EKVX)
CC1(C)C(=O)/C=C\C(=O)C(C)(C)C(=O)/C=C\C(=O)C(C)(C)C(=O)/C=C\C(=O)C(C)(C)C(=O)/C=C\C1=O	> 100 µM (inactive)	19.4 µM (inactive)	> 100 µM (inactive)	3.51 µM (inactive)	> 60 µM (inactive)	> 63 µM (inactive)	12.7 µM (inactive)	27.7 µM (inactive)	20.2 µM (inactive)	41.1 µM (inactive)	> 100 µM (inactive)	34.8 µM (inactive)	40 µM (inactive)	17.9 µM (inactive)	30.8 µM (inactive)	17.7 µM (inactive)	17.1 µM (inactive)	56.6 µM (inactive)	8.41 µM (inactive)	39.6 µM (inactive)
O/N=N/c1cnccn1	> 1210 µM (inactive)	> 1250 µM (inactive)	218 µM (inactive)	491 µM (inactive)	> 1110 µM (inactive)	1250 µM (inactive)	> 1080 µM (inactive)	1080 µM (inactive)	> 1250 µM (inactive)	> 1250 µM (inactive)	> 1250 µM (inactive)	> 1250 µM (inactive)	> 1250 µM (inactive)	> 1250 µM (inactive)	933 µM (inactive)	> 1250 µM (inactive)	> 1250 µM (inactive)	724 µM (inactive)	1030 µM (inactive)	> 1250 µM (inactive)
O=[N+]([O-])c1ccc(Cc2nc3ccccc3s2)cc1	–	99.8 µM (inactive)	> 100 µM (inactive)	33.3 µM (inactive)	> 100 µM (inactive)	> 100 µM (inactive)	> 100 µM (inactive)	44.8 µM (inactive)	71.3 µM (inactive)	> 100 µM (inactive)	–	> 100 µM (inactive)	> 100 µM (inactive)	> 100 µM (inactive)	–	66.5 µM (inactive)	> 100 µM (inactive)	> 100 µM (inactive)	60.4 µM (inactive)	> 100 µM (inactive)
COc1cc([C@@H]2c3cc4c(cc3[C@@H](NC(=O)c3ccc(C#N)cc3)C3COC(=O)[C@@H]32)OCO4)cc(OC)c1O (stereo partly specified)	–	0.721 µM (active)	0.113 µM (active)	0.0803 µM (active)	0.673 µM (active)	0.0176 µM (active)	0.586 µM (active)	0.106 µM (active)	1.26 µM (inactive)	0.794 µM (active)	–	4.03 µM (inactive)	1.02 µM (active)	1.97 µM (inactive)	–	1.25 µM (inactive)	0.355 µM (active)	< 0.01 µM (active)	0.451 µM (active)	0.979 µM (active)
CCOC(=O)/C(=C\c1cccs1)P(=O)(OCC)OCC	–	16.1 µM (inactive)	48.2 µM (inactive)	29.9 µM (inactive)	35.6 µM (inactive)	18.7 µM (inactive)	27.6 µM (inactive)	20.2 µM (inactive)	21.5 µM (inactive)	21.9 µM (inactive)	–	19.7 µM (inactive)	17.1 µM (inactive)	15.1 µM (inactive)	–	20.6 µM (inactive)	22.7 µM (inactive)	20.1 µM (inactive)	14.2 µM (inactive)	23.8 µM (inactive)
